Experimental data reported in ChEMBL document CHEMBL4229482, “Design, synthesis and biological evaluation of novel spiro-pentacylamides as acetyl-CoA carboxylase inhibitors” (Bioorg Med Chem, 2018).

Experiments:
[1] = system: NCI-H1975; assay: Antiproliferative activity against human NCI-H1975 cells after 48 hrs by MTT assay; assay type: functional, cell-based; details: NCI-H1975, 48 h
[2] = target: Acetyl-CoA carboxylase 2 (Homo sapiens, UniProt O00763); assay: Inhibition of C-terminal His-tagged full length human ACC2 expressed in Baculovirus infected Sf9 insect cells using acetyl CoA as substrate preincubated for 15 mins followed by substrate addition and measured after 60 mins by ADP-Glo assay
[3] = target: Acetyl-CoA carboxylase 1 (Homo sapiens, UniProt Q13085); assay: Inhibition of C-terminal His-tagged recombinant human ACC1 (1 to 2383 residues) expressed in Baculovirus infected Sf9 insect cells using acetyl CoA as substrate preincubated for 15 mins followed by substrate addition and measured after 60 mins by ADP-Glo assay
[4] = system: Caco-2; assay: Antiproliferative activity against human Caco2 cells after 48 hrs by MTT assay; assay type: functional, cell-based; details: Caco-2, 48 h
[5] = system: HCT-116; assay: cells; details: Homo sapiens, HCT-116, 48 h
[6] = system: SW-620; assay: cells; details: Homo sapiens, SW-620, 48 h
Description: Antiproliferative activity against human SW620 cells after 48 hrs by MTT assay

[7] = system: A549; assay: cells; details: Homo sapiens, A549, 48 h

Sequence of Acetyl-CoA carboxylase 2 (O00763 whole entry, the tested form may be a part): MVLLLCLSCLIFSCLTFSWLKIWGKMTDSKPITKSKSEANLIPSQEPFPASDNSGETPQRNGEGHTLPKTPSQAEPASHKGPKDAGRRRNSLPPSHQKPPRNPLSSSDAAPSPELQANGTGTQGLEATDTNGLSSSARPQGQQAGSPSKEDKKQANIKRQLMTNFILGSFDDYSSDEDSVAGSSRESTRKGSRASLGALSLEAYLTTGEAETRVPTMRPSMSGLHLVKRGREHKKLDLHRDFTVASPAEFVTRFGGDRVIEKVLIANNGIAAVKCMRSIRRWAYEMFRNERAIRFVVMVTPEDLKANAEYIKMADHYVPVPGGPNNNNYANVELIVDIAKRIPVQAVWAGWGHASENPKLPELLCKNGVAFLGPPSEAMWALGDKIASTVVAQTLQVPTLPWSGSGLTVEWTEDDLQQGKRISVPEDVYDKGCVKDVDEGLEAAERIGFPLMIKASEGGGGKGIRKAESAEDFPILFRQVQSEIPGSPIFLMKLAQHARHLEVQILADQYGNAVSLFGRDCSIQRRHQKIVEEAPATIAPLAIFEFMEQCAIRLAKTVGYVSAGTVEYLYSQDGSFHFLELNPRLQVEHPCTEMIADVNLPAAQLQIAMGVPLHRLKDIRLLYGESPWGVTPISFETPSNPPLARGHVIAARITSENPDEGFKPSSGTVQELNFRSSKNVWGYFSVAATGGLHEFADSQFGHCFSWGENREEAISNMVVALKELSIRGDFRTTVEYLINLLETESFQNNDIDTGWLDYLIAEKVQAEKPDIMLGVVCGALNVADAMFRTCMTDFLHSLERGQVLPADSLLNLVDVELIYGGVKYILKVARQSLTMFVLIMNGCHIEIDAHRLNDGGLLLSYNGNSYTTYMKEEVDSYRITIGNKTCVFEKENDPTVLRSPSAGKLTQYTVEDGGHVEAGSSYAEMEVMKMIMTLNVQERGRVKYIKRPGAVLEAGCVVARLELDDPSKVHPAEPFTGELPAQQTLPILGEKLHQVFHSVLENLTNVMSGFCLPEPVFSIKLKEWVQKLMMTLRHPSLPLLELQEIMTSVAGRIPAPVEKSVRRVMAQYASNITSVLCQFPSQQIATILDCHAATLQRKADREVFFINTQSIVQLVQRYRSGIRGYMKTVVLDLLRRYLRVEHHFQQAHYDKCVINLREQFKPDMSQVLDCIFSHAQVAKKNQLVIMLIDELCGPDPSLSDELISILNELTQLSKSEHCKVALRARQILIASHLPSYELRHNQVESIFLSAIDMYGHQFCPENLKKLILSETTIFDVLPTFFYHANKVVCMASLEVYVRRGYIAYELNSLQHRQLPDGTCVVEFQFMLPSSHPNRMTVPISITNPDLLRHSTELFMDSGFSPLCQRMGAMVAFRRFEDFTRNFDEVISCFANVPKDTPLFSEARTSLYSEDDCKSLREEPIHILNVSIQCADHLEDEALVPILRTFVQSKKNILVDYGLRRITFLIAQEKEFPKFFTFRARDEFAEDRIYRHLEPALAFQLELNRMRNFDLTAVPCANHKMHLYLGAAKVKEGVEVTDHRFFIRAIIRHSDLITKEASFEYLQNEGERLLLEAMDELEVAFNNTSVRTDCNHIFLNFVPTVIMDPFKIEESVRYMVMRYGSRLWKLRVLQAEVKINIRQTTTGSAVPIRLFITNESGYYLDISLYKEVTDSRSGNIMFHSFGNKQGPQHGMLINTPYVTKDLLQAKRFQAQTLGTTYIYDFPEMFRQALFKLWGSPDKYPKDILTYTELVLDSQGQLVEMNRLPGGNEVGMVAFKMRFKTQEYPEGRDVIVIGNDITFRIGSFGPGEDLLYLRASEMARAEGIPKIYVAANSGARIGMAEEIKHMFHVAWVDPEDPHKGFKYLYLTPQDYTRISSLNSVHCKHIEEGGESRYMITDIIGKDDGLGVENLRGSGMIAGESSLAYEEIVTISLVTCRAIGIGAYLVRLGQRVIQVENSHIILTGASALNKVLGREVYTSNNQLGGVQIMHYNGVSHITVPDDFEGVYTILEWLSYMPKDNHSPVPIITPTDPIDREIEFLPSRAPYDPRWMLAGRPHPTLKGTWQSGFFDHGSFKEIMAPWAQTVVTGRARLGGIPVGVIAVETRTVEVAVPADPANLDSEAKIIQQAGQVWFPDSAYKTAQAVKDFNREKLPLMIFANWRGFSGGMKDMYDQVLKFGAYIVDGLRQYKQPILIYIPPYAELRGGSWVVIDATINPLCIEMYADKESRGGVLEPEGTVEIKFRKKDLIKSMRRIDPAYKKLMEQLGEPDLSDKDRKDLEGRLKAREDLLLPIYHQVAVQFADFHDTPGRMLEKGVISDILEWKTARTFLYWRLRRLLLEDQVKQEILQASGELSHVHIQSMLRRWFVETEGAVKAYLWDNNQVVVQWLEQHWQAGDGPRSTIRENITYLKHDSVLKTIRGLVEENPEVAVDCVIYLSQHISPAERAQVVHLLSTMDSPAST

| IC50 [1] [µM] | IC50 [2] [µM] | IC50 [3] [µM] | IC50 [4] [µM] | IC50 [5] [µM] | IC50 [6] [µM] | IC50 [7] [µM] | Compound |
| --- | --- | --- | --- | --- | --- | --- | --- |
| 0.21 | 0.008 | 0.032 | 6.51 | 2.43 | 3.19 | 0.74 | Cc1cc(C(=O)N2CCC3(CC2)CC(=O)c2nn(C(C)(C)C)cc2O3)cc2cn[nH]c12 |
|  | 2.74 | 4.73 |  |  |  |  | O=C(c1ccc2cn[nH]c2c1)N1CCC2(CC1)CC(=O)N(c1ccc(C(F)(F)F)cc1)C2 |
|  | 1.11 | 1.95 |  | 8.67 | 4.74 | > 10 | O=C(c1ccc2[nH]c3c(c2c1)CCCC3)N1CCC2(CC1)CC(=O)N(c1ccc(C(F)(F)F)cc1)C2 |
| > 10 | 0.764 | 1.15 | > 10 | 6.21 | > 10 | 1.03 | CC(C)c1ccc(-c2nc3cc(C(=O)N4CCC5(CC4)CC(=O)N(c4ccc(C(F)(F)F)cc4)C5)ccc3[nH]2)cc1 |
|  | > 5 | > 5 |  |  |  |  | O=C(c1ccc2[nH]ccc2c1)N1CCC2(CC1)CC(=O)N(c1ccc(C(F)(F)F)cc1)C2 |
|  | > 5 | 3.99 |  |  |  |  | Cc1cc(C(=O)N2CCC3(CC2)CC(=O)N(c2ccc(C#N)cc2)C3)cc2cn[nH]c12 |
|  | > 5 | 4.95 |  |  |  |  | O=C(c1ccc2cc[nH]c2c1)N1CCC2(CC1)CC(=O)N(c1ccc(C(F)(F)F)cc1)C2 |
|  | > 5 | > 5 |  |  |  |  | O=C(c1cnc2ccccc2c1)N1CCC2(CC1)CC(=O)N(c1ccc(C(F)(F)F)cc1)C2 |
|  | > 5 | 4.92 |  |  |  |  | O=C(c1ccc2cccnc2c1)N1CCC2(CC1)CC(=O)N(c1ccc(C(F)(F)F)cc1)C2 |
| 0.72 | 0.976 | 1.05 |  | > 10 | 3.26 | 7.96 | O=C(c1ccc2[nH]c(-c3ccco3)nc2c1)N1CCC2(CC1)CC(=O)N(c1ccc(C(F)(F)F)cc1)C2 |
|  | > 5 | 3.56 |  |  |  |  | Cc1cc(C(=O)N2CCC3(CC2)CC(=O)N(c2ccc(C#N)cc2F)C3)cc2cn[nH]c12 |
|  | 3.02 | 2.22 |  |  |  |  | Cc1nc2cc(C(=O)N3CCC4(CC3)CC(=O)N(c3ccc(C(F)(F)F)cc3)C4)ccc2[nH]1 |
| 5.64 | 1.88 | 2.24 | > 10 | > 10 | > 10 | 2.11 | COC(=O)c1ccc(N2CC3(CCN(C(=O)c4cc(C)c5[nH]ncc5c4)CC3)CC2=O)cc1 |
|  | 3.77 | 2.01 |  |  |  |  | Cc1cc(N2CC3(CCN(C(=O)c4cc(C)c5[nH]ncc5c4)CC3)CC2=O)ccc1C#N |
| 0.38 | 0.397 | 0.527 | 5.42 | 1.22 | 2.05 | 1.92 | O=C(c1ccc2[nH]c(-c3ccccc3)nc2c1)N1CCC2(CC1)CC(=O)N(c1ccc(C(F)(F)F)cc1)C2 |
|  | 3.48 | 4.27 |  |  |  |  | O=C(c1ccc2[nH]c3c(c2c1)CCC3)N1CCC2(CC1)CC(=O)N(c1ccc(C(F)(F)F)cc1)C2 |
|  | > 5 | > 5 |  |  |  |  | O=C(c1ccc2ncccc2c1)N1CCC2(CC1)CC(=O)N(c1ccc(C(F)(F)F)cc1)C2 |
|  | 4.65 | 2.79 |  |  |  |  | Cc1cc(C(=O)N2CCC3(CC2)CC(=O)N(c2ccc(C(=O)O)cc2)C3)cc2cn[nH]c12 |
| > 10 | 0.944 | 1.2 | > 10 | 8.67 | > 10 | > 10 | Cc1cc(C(=O)N2CCC3(CC2)CC(=O)N(c2ccc(C(F)(F)F)cc2)C3)cc2cn[nH]c12 |
| 0.39 | 1.24 | 2.65 | > 10 | 7.64 | 7.24 | 3.49 | O=C(c1ccc2[nH]c(-c3ccncc3)nc2c1)N1CCC2(CC1)CC(=O)N(c1ccc(C(F)(F)F)cc1)C2 |
| 0.27 | 1.94 | 1.69 | > 10 | 4.21 | 1.82 | > 10 | CCCc1nc2cc(C(=O)N3CCC4(CC3)CC(=O)N(c3ccc(C(F)(F)F)cc3)C4)cc(C)c2[nH]1 |
